In patent US10730826B2, “Ketone inhibitors of lysine gingipain” (CORTEXYME, INC., priority 2016, dated 2020):
Like-named read-outs stand apart in the source and are kept apart here.

Key:
Cathepsin H = Cathepsin H (Homo sapiens (Human), UniProt P09668); assay: Cathepsin H inhibition assay; format: biochemical
Experimental: (§1) The capacities of compounds of the present invention to inhibit the activity of cathepsins B, H, K, L, and S were measured in similar assays. Boc-Leu-Arg-Arg-AMC (20 μM) in sodium acetate buffer (50 mM, pH 5.5) containing DTT (1 mM) and EDTA (2 mM) was used for the Cathepsin B assay. L-Arg-AMC (20 μM) in sodium acetate buffer (50 mM, pH 5.5) containing DTT (1 mM) and EDTA (2 mM) was used for the Cathepsin H assay. Z-Phe-Arg-AMC (10 μM) in HEPES buffer (50 mM, pH 7.4) containing DTT (2.5 mM) and EDTA (1 mM) was used for the Cathepsin K assay. Z-Phe-Arg-AMC (20 μM) in sodium acetate buffer (50 mM, pH 5.5) containing DTT (1 mM) and EDTA (2 mM) was used for the Cathepsin L assay. Z-Leu-Arg-AMC (10 μM) in sodium acetate buffer (25 mM, pH 4.5) containing DTT (2.5 mM) and NaCl (50 mM) was used for the Cathepsin S assay. The capacities of the compounds to inhibit the activity of cathepsins F, V, and Z were also measured.
(§2) Further assays to measure the inhibitory activity of compounds of the present invention against Kgp and cathepsins B, H, K, L, and S were conducted as described in Example 66. The capacities of the compounds to inhibit the activity of cathepsins F, V, and Z were also measured.

Cathepsin K = Cathepsin K (Homo sapiens (Human), UniProt P43235); assay: Cathepsin K inhibition assay; format: biochemical; settings: for IC50: read-out: IC50 (nM) CatK
Experimental: as §1, §2

Cathepsin S = Cathepsin S (Homo sapiens (Human), UniProt P25774); assay: Cathepsin S inhibition assay; format: biochemical; settings: for IC50: read-out: IC50 (nM) CatS
Experimental: as §1, §2

Cathepsin L = Cathepsin L (Homo sapiens (Human), UniProt P07711); assay: Cathepsin L inhibition assay; format: biochemical; settings: for IC50: read-out: IC50 (nM) CatL
Experimental: as §1, §2

Cathepsin B = Cathepsin B (Homo sapiens (Human), UniProt P07858); assay: Cathepsin B inhibition assay; format: biochemical; settings: for IC50: read-out: IC50 (nM) CatB
Experimental: as §1, §2

lysine gingipain (Kgp) [1] = assay: biochemical; format: biochemical, Porphyromonas gingivalis; settings: as compared to reference compound 73
Experimental: (§3) The specific assay conditions were as follows. Buffer: pH=7.5, 100 mM Tris-HCl, 75 mM NaCl, 2.5 mM CaCl2), 10 mM cysteine, 1% DMSO after all additions. Protein: 0.1 nM Kgp, isolated from culture of Porphyromonas gingivalis, as described by Pike et al. (J. Biol. Chem. 1994, 269(1), 406), and Potempa and Nguyen (Current Protocols in Protein Science. 2007, 21.20.1-21.20.27). Fluorogenic substrate: 10 μM Z-His-Glu-Lys-MCA. Time=90 minutes. Temperature=37° C.
as §2

lysine gingipain (Kgp) [2] = target: lysine gingipain (Kgp) (Porphyromonas gingivalis (Bacteroides gingivalis), UniProt P72194); assay: biochemical; format: biochemical; settings: IC50 (nM) Kgp
Experimental: as §3, §2

NCCCC[C@H](NC(=O)C1CCCC1)C(=O)COc1c(F)ccc(F)c1F (racemic) [1a - non-racemic]
IC50 (Cathepsin H; Table 3, read-out: IC50 (nM) CatH): 560 nM
IC50 (Cathepsin K; Table 3): 170 nM
IC50 (Cathepsin S; Table 3): 29500 nM
IC50 (Cathepsin L; Table 3): 4680 nM
IC50 (Cathepsin B; Table 3): 380 nM

NCCCC[C@H](NC(=O)C1CCCC1)C(=O)COc1c(F)cccc1F [Compound 2, (S)—N-(7-amino-1-(2,6-difluorophenoxy)-2-oxoheptan-3-yl)cyclopentanecarboxamide]
CatH IC50 relative to reference compound 73 (Cathepsin H; ratio to IC50 of compound 73): more than ten times higher
CatK IC50 relative to reference compound 73 (Cathepsin K; ratio to IC50 of compound 73): more than 100 times
selectivity for Kgp over endogenous cathepsins (lysine gingipain (Kgp) [1]): increased selectivity
CatS IC50 relative to reference compound 73 (Cathepsin S; ratio to IC50 of compound 73): more than ten times higher
CatL IC50 relative to reference compound 73 (Cathepsin L; ratio to IC50 of compound 73): more than 100 times
CatB IC50 relative to reference compound 73 (Cathepsin B; ratio to IC50 of compound 73): more than 20 times

NCCCCC(NC(=O)C1CCCC1)C(=O)COc1ccccc1F (stereo not shown) [Compound 3a]
IC50 (Cathepsin K; Table 3): > 100000 nM
IC50 (lysine gingipain (Kgp) [2]; Table 3): 0.64 nM
IC50 (Cathepsin S; Table 3): > 100000 nM
IC50 (Cathepsin L; Table 3): > 100000 nM
IC50 (Cathepsin B; Table 3): 52200 nM

NCCCCC(NC(=O)C1CCCC1)C(=O)COc1cc(F)cc(F)c1F (stereo not shown) [Compound 4a]
IC50 (Cathepsin K; Table 3): > 100000 nM
IC50 (lysine gingipain (Kgp) [2]; Table 3): 0.07 nM
IC50 (Cathepsin S; Table 3): > 100000 nM
IC50 (Cathepsin L; Table 3): > 100000 nM
IC50 (Cathepsin B; Table 3): 2640 nM

NCCCCC(NC(=O)C1CCCC1)C(=O)COc1cccc(F)c1F (stereo not shown) [Compound 5a]
IC50 (Cathepsin K; Table 3): > 100000 nM
IC50 (lysine gingipain (Kgp) [2]; Table 3): 0.15 nM
IC50 (Cathepsin S; Table 3): > 100000 nM
IC50 (Cathepsin L; Table 3): > 100000 nM
IC50 (Cathepsin B; Table 3): 21500 nM

NCCCCC(NC(=O)C1CCCC1)C(=O)COc1cc(F)ccc1F (stereo not shown) [Compound 6a]
IC50 (Cathepsin K; Table 3): > 100000 nM
IC50 (lysine gingipain (Kgp) [2]; Table 3): 0.19 nM
IC50 (Cathepsin S; Table 3): 42800 nM
IC50 (Cathepsin L; Table 3): > 100000 nM
IC50 (Cathepsin B; Table 3): 20300 nM

NCCCC[C@H](NC(=O)C1CCCC1)C(=O)COc1cccc(F)c1 [Compound 7, (S)—N-(7-amino-1-(3-fluorophenoxy)-2-oxoheptan-3-yl)cyclopentanecarboxamide]
selectivity for Kgp over endogenous cathepsins (lysine gingipain (Kgp) [1]): increased selectivity

NCCCCC(NC(=O)C1CCCC1)C(=O)COc1cccc(F)c1 (stereo not shown) [Compound 7a]
IC50 (Cathepsin K; Table 3): 20200 nM
IC50 (Cathepsin K; Table 4): > 10000 nM
IC50 (lysine gingipain (Kgp) [2]; Table 3): 1.3 nM
IC50 (lysine gingipain (Kgp) [2]; Table 4): 1.3 nM
IC50 (Cathepsin S; Table 3): 24100 nM
IC50 (Cathepsin S; Table 4): > 10000 nM
IC50 (Cathepsin L; Table 3): 5530 nM
IC50 (Cathepsin L; Table 4): > 10000 nM
IC50 (Cathepsin B; Table 3): 49600 nM
IC50 (Cathepsin B; Table 4): > 10000 nM

NCCCCC(NC(=O)C1CCCC1)C(=O)COc1cc(F)cc(F)c1 (stereo not shown) [Compound 8a]
IC50 (Cathepsin K; Table 3): > 100000 nM
IC50 (lysine gingipain (Kgp) [2]; Table 3): 0.34 nM
IC50 (Cathepsin S; Table 3): > 100000 nM
IC50 (Cathepsin L; Table 3): > 100000 nM
IC50 (Cathepsin B; Table 3): 68300 nM

[N-]=[N+]=Nc1cccc(C(=O)NC(CCCCN)C(=O)COc2c(F)cccc2F)c1 (stereo not shown) [Compound 12a]
IC50 (lysine gingipain (Kgp) [2]; Table 3): 0.08 nM

CSCC(=O)C(CCCCN)NC(=O)C1CCCC1 (stereo not shown) [Compound 16a]
IC50 (lysine gingipain (Kgp) [2]; Table 3): > 100 nM

NCCCCC(NC(=O)C1CCCC1)C(=O)COCC(F)(F)F (stereo not shown) [Compound 17a]
IC50 (lysine gingipain (Kgp) [2]; Table 3): > 100 nM

NCCCC[C@H](NC(=O)C1CCCC1)C(=O)COC(C(F)(F)F)C(F)(F)F [Compound 18, (S)—N-(7-amino-1-((1,1,1,3,3,3-hexafluoropropan-2-yl)oxy)-2-oxoheptan-3-yl)cyclopentanecarboxamide]
selectivity for Kgp over endogenous cathepsins (lysine gingipain (Kgp) [1]): far more selective

CN(C)CC(=O)C(CCCCN)NC(=O)C1CCCC1 (stereo not shown) [Compound 19a]
IC50 (lysine gingipain (Kgp) [2]; Table 3): > 100 nM

CS(=O)(=O)CC(=O)C(CCCCN)NC(=O)C1CCCC1 (stereo not shown) [Compound 20a]
IC50 (lysine gingipain (Kgp) [2]; Table 3): > 100 nM

NCCCCC(NC(=O)c1cccc(F)c1)C(=O)COc1c(F)cccc1F (stereo not shown) [Compound 26a]
IC50 (lysine gingipain (Kgp) [2]; Table 4): 0.09 nM

NCCCCC(NC(=O)c1cccc(OCCF)c1)C(=O)COc1c(F)cccc1F (stereo not shown) [Compound 27a]
IC50 (lysine gingipain (Kgp) [2]; Table 4): 0.27 nM

NCCCCC(NC(=O)c1cccc(F)n1)C(=O)COc1c(F)cccc1F (stereo not shown) [Compound 28a]
IC50 (lysine gingipain (Kgp) [2]; Table 4): 0.34 nM

NCCCCC(NC(=O)c1ccc(F)nc1)C(=O)COc1c(F)cccc1F (stereo not shown) [Compound 29a]
IC50 (lysine gingipain (Kgp) [2]; Table 4): 0.31 nM

NCCCCC(NC(=O)c1cccc(OCCCF)c1)C(=O)COc1c(F)cccc1F (stereo not shown) [Compound 30a]
IC50 (lysine gingipain (Kgp) [2]; Table 4): 0.21 nM

NCCCCC(NC(=O)c1ccnc(F)c1)C(=O)COc1c(F)cccc1F (stereo not shown) [Compound 31a]
IC50 (lysine gingipain (Kgp) [2]; Table 4): 0.15 nM

NCCCCC(NC(=O)c1cccnc1F)C(=O)COc1c(F)cccc1F (stereo not shown) [Compound 32a]
IC50 (lysine gingipain (Kgp) [2]; Table 4): 0.08 nM

[N-]=[N+]=Nc1cccc(C(=O)NC(CCCCN)C(=O)COc2c(F)cccc2F)c1 (stereo not shown) [Compound 33a]
IC50 (lysine gingipain (Kgp) [2]; Table 4): 0.08 nM
